According to PMC5538626, “Structural and functional analysis of the GABARAP interaction motif (GIM)” (EMBO Reports, 2017):
“Also recorded” adds a separate entry of the source. Ends that are not written are not given here.

Experiments:
LC3 and GABARAP families = settings: cited from earlier work
From the text: However, despite the ever‐increasing number of LC3/GABARAP interaction partners identified and perhaps the over‐reliance on LC3B as the main marker of autophagosomes, there is now emerging distinct roles of each LC3 and GABARAP subfamily. For example, both LC3 and GABARAP families are essential for autophagy flux 29; however, LC3s were reported to be involved in phagophore extension and GABARAPs required for autophagosome closure 29. Moreover, GABARAP can activate ULK1 complex to initiate autophagy, irrespective of its conjugation status 28. Indeed, this is also reflected in C. elegans homolog ...

[1] = test system: 6xHis-tagged LC3B and 6xHis-tagged GABARAP; test: Peptide array, preference GABARAP versus LC3B (absorbance ratio); assay type: binding, human; settings: absorbance GABARAP/LC3B or LC3B/GABARAP, cut-off 1.5-fold, mean of n = 3, Figs 1A, EV1B and C
From the text: A high number of autophagy receptors or adaptor structures have been reported, yet the basis for their selective interaction with individual members of the ATG8 family is not well understood. We speculated whether the LIR motif alone is able to confer selectivity towards a mATG8 subfamily and whether we could derive a subfamily consensus motif from analysis of known mATG8 interaction partners. To address this question, we screened an array of peptides (presented in Fig EV1A and described in Materials and Methods) with the LIR sequences of 30 known and validated autophagy receptors and adaptors (Table 1) against all six human mATG8s for binding (Figs 1A and EV1B and C). In brief, biotinylated peptides were immobilized on streptavidin‐coated 96‐well plates and incubated with His6‐tagged mATG8 proteins. After washing steps, peptide‐bound mATG8 was detected in an ELISA reader using anti‐His antibodies directly conjugated to HRP (horse radish peroxidase; Fig EV1A).
Dashed red line depicts 1.5‐fold change cut‐off.
Due to the wide range of affinities of various LIR sequences towards the LC3/GABARAP proteins, we have normalized our results by dividing values for LC3B interaction by the corresponding value for interaction with GABARAP (Fig 1A, purple bars) and vice versa (Fig 1A, blue bars) to highlight the potential subfamily selectivity of each LIR sequence tested. We classified ratios greater than 1.5‐fold as an indication of a preferential interaction towards that particular LC3 or GABARAP family member. […] Using this information, we generated a sequence plot (Fig 1B) to ascertain whether there were any common sequence features of the GABARAP‐specific interaction proteins. In addition to the 12 sequences identified in this experiment as preferential GABARAP subfamily interactors, we also included known GABARAP interactors that were not included in our screen (ALFY and KBTBD7). […] The previously identified PLEKHM1‐LIR 19 has a high degree of similarity to this sequence. […] However, it is unclear whether this is the case in vivo.
Biotinylated peptides (JPT, Germany) were immobilized on streptavidin‐coated 96‐well plates (#436014; Thermo Scientific) in 100 μl PBS containing 0.1% Tween‐20 (PT) and 1% BSA (PTB) overnight on a shaker at 8°C. After three washing steps with 200 μl PT, 100 μl of 1 μM HIS6‐tagged mATG fusion proteins isolated from E. coli in PTB was incubated with the immobilized peptides for 1 h at 8°C. After three washing steps with 200 μl PT, HIS6‐ATG8 bound to peptides was detected after 1‐h incubation with anti‐HIS‐HRP antibody (JP‐A00612; Genscript; 1:5,000 in 100 μl PTB) with the help of TMB substrate Reagent Set (BD OptEIA; 75 μl). The reaction (blue coloration) was stopped by addition of 60 μl 1 M H3PO4. Samples were analysed on a Synergy H1 ELISA reader from BioTek at 450 nm.

all six mATG8 proteins = test: Peptide array (ELISA), all six mATG8s; settings: 450 nm, Fig 3E, n = 4
6xHis-tagged LC3B = test: Peptide array (ELISA), LC3B; settings: mean ± SEM n = 5, Fig 4B
LC3B = target: T1, LC3B (Homo sapiens, UniProt Q9GZQ8); test: ITC titration of PLEKHM1-LIR peptides into LC3B; assay type: binding; settings: ITC, 25°C, pH 7.0; 0.4 mM peptide into 0.020 mM protein; one-site model
T1 construct: modified Ub-leader (ubiquitin fusion leader) (N); made in house; host or cells: E. coli NEB T7 Express
Description: The genes for the truncated LC3A^2–121, LC3C^8–125, GABARAP^2–117 and GABARAP‐L1^2–117 proteins were cloned into pET30ΔSE vector between the BamHI and XhoI sites using previously established protocols 38. The chimeric constructs of the PLEKHM1‐LIR attached to the LC3A, GABARAP and GABARAP‐L1 proteins were prepared by inserting the oligonucleotide sequence corresponding to the PLEKHM1‐LIR peptide (P^629[…]^638) and glycine–serine linker into the BamHI site of the pET30ΔSE vector, placing the PLEKHM1‐LIR at the N‐terminal of the mature chimeric protein (similar to 31, 38). For the expression of human LC3 and GABARAP proteins for ITC and NMR experiments, plasmids with appropriate modified Ub‐leaders in pET vectors were used 39. Gene, encoding PLEKHM1‐LIR peptide, was ordered as synthetic oligonucleotides (Eurofins Genomics GmbH) and cloned into the pET39_Ub63_ vector 39 by NcoI–BamHI restriction sites. After TEV cleavage, the resulting peptide has the amino acid sequence GAMG‐P^629[…]^642, where the first four residues (GAMG) are the cloning artefact.
The chimeric constructs were expressed as a His‐tag fusion protein in E. coli BL21(DE3) cells. The cells were induced with 0.3 mM IPTG at OD600 0.6 for 16 h at 26°C. The cell pellets were lysed using mechanical sonication in lysis buffer (20 mM Tris–HCl pH 9.0, 100 mM NaCl, 10 mM imidazole, supplemented with 0.1% Triton X‐100). The proteins were purified using Ni‐NTA beads (GE Healthcare) and the His‐tag was cleaved using thrombin (Invitrogen) at room temperature for 16 h. The last step was gel filtration chromatography using a Superdex S200/300 GL column (GE Healthcare). The proteins were concentrated using spin concentrators (Vivaspin). For ITC and NMR studies, the non‐labelled and stable isotopes labelled LC3 and GABARAP proteins were obtained based on the protocols described elsewhere 30, 39. Here, E. coli NEB T7 Express culture transformed with corresponding plasmids were grown till OD600 nm = 1.0 and protein expression was induced with 0.2 mM IPTG. The cultures were incubated at 25°C for 8–12 h before cell harvesting. Isolation and purification procedures were similar to those reported in Ref. 22, 40. Before experiments, all proteins and peptides were equilibrated with a buffer containing 50 mM Na2HPO4, 100 mM NaCl at pH 7.0, and supplied with 5 mM protease inhibitor cocktail.
The protocol for preparation of non‐labelled and ^13C,^15N‐labelled PLEKHM1‐LIR peptide was slightly modified to achieve highest yield of the peptide. The 50 ml M9 culture was inoculated with NEB T7 cell transformed with pET39_Ub63‐PLEKHM1‐LIR plasmid and grown overnight at 37°. The collected cells were resuspended in 2 l of either LB or M9 media contained 1.5 g ^15N‐labelled NH4Cl and 3.0 g of ^13C‐labelled glucose. The cultures were grown at 37° till A(600 nm) = 0.9 and supplied with 1 mM of IPTG to induce Ub63‐PLEKHM1‐LIR overexpression (3 h at 37°). After that cells were harvested by centrifugation, re‐suspended in buffer contained 50 mM Tris–HCl pH = 7.9, 200 mM NaCl, 5% glycerol, 0.1 mg/ml DNase A and 4 mM protease inhibitor cocktail. After cell lysis by French press, debris was removed by centrifugation and clear supernatant was applied onto the column contained Ni‐NTA Sepharose equilibrated with the loading buffer (50 mM Tris–HCl pH = 7.9, 250 mM NaCl, 1% glycerol and 20 mM imidazole). Elution was performed with 400 mM imidazole in the same buffer. An aliquot of pure Ub63‐PLEKHM1‐LIR fractions was further purified by gel filtration on Superdex75 26 × 60 column for control ITC and analytical size exclusion chromatography experiments, remaining fusion protein was processed with the TEV‐protease and PLEKHM1‐LIR peptide was purified to 95% purity by reverse Ni‐NTA chromatography and followed gel filtration on Superdex75 26 × 60 column. Peak maximum of peptide was detected at […] (void volume 115 ml). Pure peptide was concentrated in Amicon concentrators with cut‐off of 3 kDa (> 95% retention). […]

Sequence: DAVFDIITD [FYCO1, LIR peptide 1277–1285; in b48 the protein]
- subfamily specificity (LC3 and GABARAP families): LC3A‐specific adaptor

Sequence: DDFWVRVAP [KTBD6, LIR peptide 665–673]
- preference GABARAP versus LC3B ([1]; listed as KBTBD6): strong preference for GABARAP versus LC3B
- preference GABARAP versus LC3B ([1]; listed as KBTDB6): clear specificity towards GABARAP versus LC3B

Sequence: DDSYEVLDL [FUNDC1, LIR peptide 152–160 (so in the source)]
- preference GABARAP versus LC3B [1]: preferentially interacted with the LC3 group; also recorded: only LC3‐selective LIR; also recorded: only LC3B‐specific LIR

Sequence: EDEAVNAQY [W635A/V638A, reference compound]
- interaction with all mATG8s, alanine scan (all six mATG8 proteins): completely disrupted all LIR–mATG8 interactions

Sequence: EDEWCFLQY
- interaction with LC3B, core motif combinations (6xHis-tagged LC3B): increased the interaction of PLEKHM1‐LIR with LC3B

Sequence: EDEWCILQY [WCIL]
- Kd (LC3B): 300 nM

Sequence: EDEWCVLQY
- interaction with LC3B, core motif combinations (6xHis-tagged LC3B): increased the interaction of PLEKHM1‐LIR with LC3B

Sequence: EDSFVEIRM [OPTN, LIR peptide 175–183]
- subfamily preference after phosphorylation (LC3 and GABARAP families; TBK1 phosphorylation at S177): switches to LC3B
- subfamily preference (LC3 and GABARAP families; unmodified state): clearly shows preference for GABARAP
